This note sets out measurements from PubChem BioAssay (NCI).

Among the test systems are OVCAR-4 ovarian; HCT-15 colon; RPMI-8226 leukemia; HOP-62 NSCLC; RXF 393 renal; UACC-257 melanoma; NCI-H522 lung; SK-MEL-5 melanoma; SNB-19 CNS; NCI-H226 lung; SF-268 CNS; OVCAR-5 ovarian; HOP-92 NSCLC; HCT-116 colon; U251 CNS; NCI-H23 lung; HT29 colon; SN12C renal; SF-295 CNS; CAKI-1 renal.
What all share (assay): NCI tumour cell line growth inhibition, 48 h

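Exposure lasted 48 hours, with cells grown in 96-well plates and compounds tested at five concentrations. TGI is the concentration that stops growth completely.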

As for `O=P1(Oc2ccc(Cl)cc2Cl)Oc2ccc3ccccc3c2-c2c(ccc3ccccc23)O1`, the TGI is 94.2 µM in the test with OVCAR-4 ovarian; > 77.1 µM in the test with HCT-15 colon; 48 µM with RPMI-8226 leukemia; 40 µM in the test on HOP-62 NSCLC; 34.7 µM with RXF 393 renal; > 100 µM in the test with UACC-257 melanoma. Further, the TGI with NCI-H522 lung was 50.7 µM; in the test on SK-MEL-5 melanoma it was > 100 µM; in the test on SNB-19 CNS, 82.8 µM; in the test on NCI-H226 lung, 59.8 µM; in the test with SF-268 CNS it was > 100 µM; with OVCAR-5 ovarian it was > 100 µM. Also, the TGI is 50.1 µM in the test on HOP-92 NSCLC; > 75.1 µM in the test on HCT-116 colon; 47.5 µM in the test with U251 CNS; 75.8 µM with NCI-H23 lung; > 100 µM in the test on HT29 colon; > 100 µM in the test with SN12C renal. Further, the TGI in the test with SF-295 CNS was > 94.7 µM; in the test on CAKI-1 renal, 43.3 µM.

On to `O=[N+]([O-])c1ccc(N=Nc2c(O)ccc3ccccc23)c([N+](=O)[O-])c1`, for which the TGI in the test with OVCAR-4 ovarian, in the test with HCT-15 colon, in the test with RPMI-8226 leukemia, in the test on HOP-62 NSCLC, with RXF 393 renal and in the test on UACC-257 melanoma was > 100 µM in each case. Besides, the TGI in the test on NCI-H522 lung, with SK-MEL-5 melanoma, in the test on SNB-19 CNS, with NCI-H226 lung, in the test with SF-268 CNS and in the test with OVCAR-5 ovarian was > 100 µM throughout. Moreover, the TGI in the test with HOP-92 NSCLC, in the test on HCT-116 colon, in the test on U251 CNS, in the test with NCI-H23 lung, in the test with HT29 colon and with SN12C renal was > 100 µM each time. The TGI with SF-295 CNS and with CAKI-1 renal was > 100 µM throughout.

`O=C(Nc1ccccc1)c1cc2ccccc2c(N=Nc2ccc([N+](=O)[O-])cc2)c1O`: the TGI with OVCAR-4 ovarian, with HCT-15 colon, in the test with RPMI-8226 leukemia, with HOP-62 NSCLC, with RXF 393 renal and in the test on UACC-257 melanoma was > 100 µM throughout. The TGI in the test with NCI-H522 lung, with SK-MEL-5 melanoma, in the test with SNB-19 CNS, in the test with NCI-H226 lung, in the test with SF-268 CNS and with OVCAR-5 ovarian was > 100 µM each time. Further, the TGI in the test with HOP-92 NSCLC, with HCT-116 colon, in the test on U251 CNS, in the test on NCI-H23 lung, in the test with HT29 colon and with SN12C renal was > 100 µM throughout. Besides, the TGI with SF-295 CNS and in the test with CAKI-1 renal was > 100 µM each time.

Turning to `COc1ccc2nccc(SCC(=O)O)c2c1`, the TGI in the test on OVCAR-4 ovarian, with HCT-15 colon, in the test on RPMI-8226 leukemia, in the test on HOP-62 NSCLC, in the test with RXF 393 renal and in the test with UACC-257 melanoma was > 100 µM throughout. Besides, the TGI in the test on NCI-H522 lung, in the test on SK-MEL-5 melanoma, with SNB-19 CNS, in the test on NCI-H226 lung, in the test with SF-268 CNS and in the test on OVCAR-5 ovarian was > 100 µM in each case. For the same molecule, the TGI in the test on HOP-92 NSCLC, in the test with HCT-116 colon, with U251 CNS, in the test on NCI-H23 lung, in the test with HT29 colon and in the test with SN12C renal was > 100 µM in each case. Besides, the TGI with SF-295 CNS and in the test with CAKI-1 renal was > 100 µM in each case.

As to `CCCC[C@H]1[C@@H](OCOc2ccccc2)COC(=O)N1[C@H](C)c1ccccc1`, the TGI with OVCAR-4 ovarian worked out at 43.9 µM; in the test with HCT-15 colon, 44.6 µM; with RPMI-8226 leukemia, 60.1 µM; with HOP-62 NSCLC, 29.8 µM; in the test with RXF 393 renal, 47.6 µM; in the test on UACC-257 melanoma it was 29.5 µM. Moreover, the TGI is 29.2 µM in the test on NCI-H522 lung; 16.9 µM in the test on SK-MEL-5 melanoma; > 55 µM in the test with SNB-19 CNS; > 100 µM in the test on NCI-H226 lung; 38.7 µM with SF-268 CNS; 43.6 µM with OVCAR-5 ovarian. Moreover, the TGI in the test on HOP-92 NSCLC was 54 µM; with HCT-116 colon it was 20.8 µM; in the test with U251 CNS, 42.3 µM; in the test with NCI-H23 lung, > 58.2 µM; in the test on HT29 colon, > 59 µM; with SN12C renal, 21.9 µM. Also, the TGI in the test on SF-295 CNS was 50.6 µM; in the test on CAKI-1 renal, 30.5 µM.

For the molecule `COc1ccc(C2SCC(=O)N2NC(=O)c2ccncc2)cc1F` (stereo not given), the TGI in the test with OVCAR-4 ovarian, with HCT-15 colon, in the test with RPMI-8226 leukemia, with HOP-62 NSCLC, in the test on RXF 393 renal and in the test with UACC-257 melanoma was > 100 µM in each case. The TGI in the test with NCI-H522 lung, in the test with SK-MEL-5 melanoma, in the test on SNB-19 CNS, with NCI-H226 lung, with SF-268 CNS and in the test with OVCAR-5 ovarian was > 100 µM each time. For the same molecule, the TGI in the test on HOP-92 NSCLC, in the test on HCT-116 colon, with U251 CNS, in the test with NCI-H23 lung, in the test with HT29 colon and in the test with SN12C renal was > 100 µM each time. For the same molecule, the TGI in the test with SF-295 CNS and with CAKI-1 renal was > 100 µM each time.
